Laboratory results published in patent US12331061B2, “Compounds having BET, estrogen receptor, and androgen receptor degradation activity and uses thereof” (ACCUTAR BIOTECHNOLOGY INC., priority 2019, dated 2025).

Key:
Assay in all cases: Degradation of BET proteins in MCF7 cells, Western blot with densitometry
Assay type in all cases: cell-based
BRD2 = biological target: T1, BRD2 (Homo sapiens, UniProt P25440); conditions: for degradative activity towards BRD2 over a 24 hour time course: 24 hour time course experiment, shown only in FIG. 1c; for degradative activity towards BRD2: MCF7 cell line, 6 hours after administration, shown only in FIG. 1a, 1b, 2
T1 construct: MCF7 cells were plated in 24-well plates; endogenous in cells; host or cells: MCF7
T1 sequence (P25440 whole entry): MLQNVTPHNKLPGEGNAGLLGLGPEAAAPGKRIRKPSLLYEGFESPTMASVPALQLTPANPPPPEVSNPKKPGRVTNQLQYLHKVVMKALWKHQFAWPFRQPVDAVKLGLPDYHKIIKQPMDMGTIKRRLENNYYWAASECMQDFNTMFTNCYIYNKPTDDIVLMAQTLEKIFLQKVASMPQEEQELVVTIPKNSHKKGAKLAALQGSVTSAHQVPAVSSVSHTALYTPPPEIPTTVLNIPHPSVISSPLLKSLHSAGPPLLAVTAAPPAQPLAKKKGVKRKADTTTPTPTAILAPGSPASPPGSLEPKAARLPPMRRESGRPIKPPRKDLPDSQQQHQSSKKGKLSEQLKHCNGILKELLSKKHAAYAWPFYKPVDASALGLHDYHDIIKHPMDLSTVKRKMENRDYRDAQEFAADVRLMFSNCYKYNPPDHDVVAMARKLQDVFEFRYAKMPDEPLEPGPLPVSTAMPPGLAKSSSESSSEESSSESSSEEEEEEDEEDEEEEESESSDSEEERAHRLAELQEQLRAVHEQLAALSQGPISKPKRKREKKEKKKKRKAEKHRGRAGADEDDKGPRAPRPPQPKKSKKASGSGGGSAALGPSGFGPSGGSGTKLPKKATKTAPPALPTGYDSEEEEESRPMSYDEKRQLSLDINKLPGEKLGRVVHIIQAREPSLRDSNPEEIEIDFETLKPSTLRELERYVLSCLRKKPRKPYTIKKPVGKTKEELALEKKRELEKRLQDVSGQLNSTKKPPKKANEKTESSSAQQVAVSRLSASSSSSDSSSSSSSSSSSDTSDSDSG
Protocol: (§1) MCF7 cells were plated in 24-well plates at 1.5×10^5 cells/well in DMEM growth medium containing 10% FBS and 1% Penicillin Streptomycin, and incubated overnight at 37° C. The following day, test compound was administered to the cells using 1000× compound stock solution prepared in DMSO at various concentrations. […] Cells were then washed with PBS and protein was collected in Laemmli sample buffer (1×; VWR International). Protein was isolated from cell lysate (approximately 25 μg) by SDS-PAGE and transferred to nitrocellulose membranes. Non-specific binding was blocked by incubating with blocking buffer (5% milk in Tris-buffered saline with 0.1% Tween 20 (“TBS-T”)) at room temperature for 60 minutes. The membrane was then incubated with primary antibodies (rabbit anti-BRD2 (1:1000, Cell Signaling), mouse anti-GAPDH (1:5,000, Santa Cruz), mouse anti-BRD3 (1:500, Abcam) and rabbit anti-BRD4 (1:500, Abcam)) overnight at 4° C., followed by washing (3 times) with TBS-T, and incubation with horseradish peroxidase-conjugated […] IgG (1:5,000, Jackson Immunoresearch) or goat anti-mouse IgG (1:5,000, Jackson Immunoresearch) for 60 minutes. After washing with TBS-T, blots were developed using an enhanced chemiluminescence kit (ThermoFisher Scientific) and the bands were imaged and quantified by densitometry (Bio-Rad).

BRD3 = biological target: T2, BRD3 (Homo sapiens, UniProt Q15059); conditions: for degradative activity towards BRD3 over a 24 hour time course: 24 hour time course experiment, shown only in FIG. 1c; for degradative activity towards BRD3: MCF7 cell line, 6 hours after administration, shown only in FIG. 1a, 1b, 2
T2 construct: endogenous in cells; host or cells: MCF7
T2 sequence (Q15059 whole entry): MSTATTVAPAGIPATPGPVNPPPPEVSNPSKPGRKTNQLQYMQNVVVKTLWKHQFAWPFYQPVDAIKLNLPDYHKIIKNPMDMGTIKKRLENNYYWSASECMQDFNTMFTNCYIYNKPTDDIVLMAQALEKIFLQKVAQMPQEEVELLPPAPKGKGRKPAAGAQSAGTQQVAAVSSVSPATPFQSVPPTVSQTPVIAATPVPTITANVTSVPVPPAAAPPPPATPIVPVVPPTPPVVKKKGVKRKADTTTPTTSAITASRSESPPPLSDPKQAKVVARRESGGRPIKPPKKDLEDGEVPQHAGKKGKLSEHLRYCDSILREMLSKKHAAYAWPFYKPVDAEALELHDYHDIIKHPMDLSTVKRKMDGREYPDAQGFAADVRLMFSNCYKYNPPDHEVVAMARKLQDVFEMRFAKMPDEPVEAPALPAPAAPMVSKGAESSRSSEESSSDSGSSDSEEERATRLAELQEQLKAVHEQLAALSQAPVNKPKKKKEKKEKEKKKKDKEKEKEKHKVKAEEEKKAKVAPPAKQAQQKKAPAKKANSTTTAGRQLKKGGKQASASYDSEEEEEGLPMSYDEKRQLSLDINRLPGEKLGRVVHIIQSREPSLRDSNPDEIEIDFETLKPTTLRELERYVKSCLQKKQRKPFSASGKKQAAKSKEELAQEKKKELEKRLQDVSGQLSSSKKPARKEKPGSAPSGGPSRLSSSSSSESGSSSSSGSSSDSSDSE
Protocol: as §1

BRD4 = BRD4 (Homo sapiens, UniProt O60885); set-up: endogenous in cells; host or cells: MCF7; conditions: 24 hour time course experiment; shown only in FIG. 1c
Protocol: as §1

Cc1sc2c(c1C)C(c1ccc(Cl)cc1)=N[C@@H](CC(=O)NCCCCCCCCCCC(=O)Nc1cccc(CC(=O)NC3CCC(=O)NC3=O)c1)c1nnc(C)n1-2 (stereo partly drawn) [Compound 253035, 11-(2-((S)-4-(4-chlorophenyl)-2,3,9-trimethyl-6H-thieno[3,2-f][1,2,4]triazolo[4,3-a][1,4]diazepin-6-yl)acetamido)-N-(3-(2-((2,6-dioxopiperidin-3-yl)amino)-2-oxoethyl)phenyl)undecanamide]
degradative activity: degradative activity towards BRD2 over a 24 hour time course (BRD2) | degradative activity towards BRD2 (BRD2) | degradative activity towards BRD3 over a 24 hour time course (BRD3) | degradative activity towards BRD3 (BRD3) | degradative activity towards BRD4 over a 24 hour time course (BRD4)

Cc1sc2c(c1C)C(c1ccc(Cl)cc1)=N[C@@H](CC(=O)NCCCCCCCCCCC(=O)Nc1ccc(CC(=O)NC3CCC(=O)NC3=O)cc1)c1nnc(C)n1-2 (stereo partly drawn) [Compound 253034, 11-(2-((S)-4-(4-chlorophenyl)-2,3,9-trimethyl-6H-thieno[3,2-f][1,2,4]triazolo[4,3-a][1,4]diazepin-6-yl)acetamido)-N-(4-(2-((2,6-dioxopiperidin-3-yl)amino)-2-oxoethyl)phenyl)undecanamide]
degradative activity: degradative activity towards BRD2 over a 24 hour time course (BRD2) | degradative activity towards BRD2 (BRD2) | degradative activity towards BRD3 over a 24 hour time course (BRD3) | degradative activity towards BRD3 (BRD3) | degradative activity towards BRD4 over a 24 hour time course (BRD4)
